According to PMC9516332 (Frontiers in Oncology, 2022):
Where two headings read alike, the source gives them in different places.

Tests used:
AP-1060 (ETV6-NTRK3) = assay: Cell viability assay; details: read-out: IC50 in cell proliferation assay
134 cancer cell lines = assay: Cell viability assay (ATPlite, 72 hours), IC50 on cancer cell line panel

CCn1c(=O)c(-c2cc(NC(=O)Nc3ccccc3)c(F)cc2Br)cc2cnc(NC)cc21 [ripretinib]
IC50 (AP-1060 (ETV6-NTRK3)): 2.83 µM | IC50 (134 cancer cell lines; HEC-6, read-out: IC50 in cell proliferation assay): 1.86 µM | IC50 (134 cancer cell lines; Homo sapiens, 769-P, read-out: IC50 in cell proliferation assay): 2.58 µM | IC50 (134 cancer cell lines; Homo sapiens, 786-0, read-out: IC50 in cell proliferation assay): 2.14 µM | IC50 (134 cancer cell lines; Homo sapiens, A 172, read-out: IC50 in cell proliferation assay): 4.96 µM | IC50 (134 cancer cell lines; Homo sapiens, A204, read-out: IC50 in cell proliferation assay): 0.52 µM | IC50 (134 cancer cell lines; Homo sapiens, A498, read-out: IC50 in cell proliferation assay): 1.14 µM | IC50 (134 cancer cell lines; Homo sapiens, A549, read-out: IC50 in cell proliferation assay): 2.69 µM | IC50 (134 cancer cell lines; Homo sapiens, A704, read-out: IC50 in cell proliferation assay): 2.21 µM | IC50 (134 cancer cell lines; Homo sapiens, A-375, read-out: IC50 in cell proliferation assay): 2.92 µM | IC50 (134 cancer cell lines; Homo sapiens, A-427, read-out: IC50 in cell proliferation assay): 1.52 µM | IC50 (134 cancer cell lines; Homo sapiens, ACHN, read-out: IC50 in cell proliferation assay): 1.47 µM | IC50 (134 cancer cell lines; Homo sapiens, AN3-CA, read-out: IC50 in cell proliferation assay): 1.01 µM | IC50 (134 cancer cell lines; Homo sapiens, ASPC1, read-out: IC50 in cell proliferation assay): 7.56 µM | IC50 (134 cancer cell lines; Homo sapiens, AU565, read-out: IC50 in cell proliferation assay): 3.75 µM | IC50 (134 cancer cell lines; Homo sapiens, BT-20, read-out: IC50 in cell proliferation assay): 7.43 µM | IC50 (134 cancer cell lines; Homo sapiens, BT-474, read-out: IC50 in cell proliferation assay): 2.23 µM | IC50 (134 cancer cell lines; Homo sapiens, BT-549, read-out: IC50 in cell proliferation assay): 4.51 µM | IC50 (134 cancer cell lines; Homo sapiens, BXPC-3, read-out: IC50 in cell proliferation assay): 1.51 µM | IC50 (134 cancer cell lines; Homo sapiens, C-33-A, read-out: IC50 in cell proliferation assay): 4.83 µM | IC50 (134 cancer cell lines; Homo sapiens, CAL-27, read-out: IC50 in cell proliferation assay): 9.8 µM | IC50 (134 cancer cell lines; Homo sapiens, CCF-STTG1, read-out: IC50 in cell proliferation assay): > 31.6 µM | IC50 (134 cancer cell lines; Homo sapiens, CCRF-CEM, read-out: IC50 in cell proliferation assay): 4.98 µM | IC50 (134 cancer cell lines; Homo sapiens, COLO 205, read-out: IC50 in cell proliferation assay): 1.87 µM | IC50 (134 cancer cell lines; Homo sapiens, COLO-829, read-out: IC50 in cell proliferation assay): 2.49 µM | IC50 (134 cancer cell lines; Homo sapiens, DLD-1, read-out: IC50 in cell proliferation assay): 1.54 µM | IC50 (134 cancer cell lines; Homo sapiens, DU-145, read-out: IC50 in cell proliferation assay): 1.97 µM | IC50 (134 cancer cell lines; Homo sapiens, DU-4475, read-out: IC50 in cell proliferation assay): 3.38 µM | IC50 (134 cancer cell lines; Homo sapiens, Daoy, read-out: IC50 in cell proliferation assay): 2.06 µM | IC50 (134 cancer cell lines; Homo sapiens, DoTc2-4510, read-out: IC50 in cell proliferation assay): 6.21 µM | IC50 (134 cancer cell lines; Homo sapiens, EOL1, read-out: IC50 in cell proliferation assay): 0.000634 µM | IC50 (134 cancer cell lines; Homo sapiens, FaDu, read-out: IC50 in cell proliferation assay): 3.05 µM | IC50 (134 cancer cell lines; Homo sapiens, G-361, read-out: IC50 in cell proliferation assay): 2.52 µM | IC50 (134 cancer cell lines; Homo sapiens, HCC827, read-out: IC50 in cell proliferation assay): 3.83 µM | IC50 (134 cancer cell lines; Homo sapiens, HCC4006, read-out: IC50 in cell proliferation assay): > 31.6 µM | IC50 (134 cancer cell lines; Homo sapiens, HCT-15, read-out: IC50 in cell proliferation assay): 2.56 µM | IC50 (134 cancer cell lines; Homo sapiens, HCT-116, read-out: IC50 in cell proliferation assay): 3.02 µM | IC50 (134 cancer cell lines; Homo sapiens, HEC-1, read-out: IC50 in cell proliferation assay): 1.36 µM | IC50 (134 cancer cell lines; Homo sapiens, HEC-1B, read-out: IC50 in cell proliferation assay): 0.426 µM | IC50 (134 cancer cell lines; Homo sapiens, HL-60, read-out: IC50 in cell proliferation assay): 1.81 µM | IC50 (134 cancer cell lines; Homo sapiens, HT, read-out: IC50 in cell proliferation assay): > 31.6 µM | IC50 (134 cancer cell lines; Homo sapiens, HT-1080, read-out: IC50 in cell proliferation assay): 1.7 µM | IC50 (134 cancer cell lines; Homo sapiens, Hs746T, read-out: IC50 in cell proliferation assay): 3.1 µM | IC50 (134 cancer cell lines; Homo sapiens, Hs-578T, read-out: IC50 in cell proliferation assay): 3.73 µM | IC50 (134 cancer cell lines; Homo sapiens, HuTu80, read-out: IC50 in cell proliferation assay): 1.58 µM | IC50 (134 cancer cell lines; Homo sapiens, J82, read-out: IC50 in cell proliferation assay): 2.3 µM | IC50 (134 cancer cell lines; Homo sapiens, Jurkat E6.1, read-out: IC50 in cell proliferation assay): 2.64 µM | IC50 (134 cancer cell lines; Homo sapiens, K562, read-out: IC50 in cell proliferation assay): 1.85 µM | IC50 (134 cancer cell lines; Homo sapiens, KATO III, read-out: IC50 in cell proliferation assay): 0.676 µM | IC50 (134 cancer cell lines; Homo sapiens, KG-1, read-out: IC50 in cell proliferation assay): 0.59 µM | IC50 (134 cancer cell lines; Homo sapiens, KLE, read-out: IC50 in cell proliferation assay): 9.98 µM | IC50 (134 cancer cell lines; Homo sapiens, KMS-11, read-out: IC50 in cell proliferation assay): 4.57 µM | IC50 (134 cancer cell lines; Homo sapiens, KU812, read-out: IC50 in cell proliferation assay): 0.85 µM | IC50 (134 cancer cell lines; Homo sapiens, Kasumi 1, read-out: IC50 in cell proliferation assay): 0.055 µM | IC50 (134 cancer cell lines; Homo sapiens, LC-2-ad, read-out: IC50 in cell proliferation assay): 5.38 µM | IC50 (134 cancer cell lines; Homo sapiens, LNCaP-Clone-FGC, read-out: IC50 in cell proliferation assay): 4.88 µM | IC50 (134 cancer cell lines; Homo sapiens, LS174T, read-out: IC50 in cell proliferation assay): 9.31 µM | IC50 (134 cancer cell lines; Homo sapiens, LS-411N, read-out: IC50 in cell proliferation assay): 2.72 µM | IC50 (134 cancer cell lines; Homo sapiens, LoVo, read-out: IC50 in cell proliferation assay): 3.04 µM
